Data from ChEMBL document CHEMBL5696443 (Clin Cancer Res, 2016).
Active and inactive are the calls of the source. The rule behind the calls is not given here.

Tests used:
[1] = target: Serine/threonine-protein kinase Nek2 (Homo sapiens) (UniProt P51955); assay: Inhibition of human NEK2 at 1 uM using MBP substrate in presence of [gamma33P]-ATP by HotSpot assay relative to control
[2] = target: Receptor-interacting serine/threonine-protein kinase 2 (Homo sapiens) (UniProt O43353); assay: Inhibition of human RIPK2 at 1 uM using MBP as substrate in presence of [gamma33P]-ATP by HotSpot assay relative to control
[3] = target: CDK6/cyclin D1 (Homo sapiens) (UniProt P24385+Q00534); assay: Inhibition of human CDK6/CyclinD1 at 1 uM using RB protein as substrate in presence of [gamma33P]-ATP by HotSpot assay relative to control; type: protein-complex assay
[4] = tested on: NCI-H2228; assay: Antitumor activity against ALK positive human NCI-H2228 cells xenografted in CB-17/SCID orthotopic brain tumor mouse model assessed as median survival time at 50 mg/kg po administered daily and measured after 64 days (reference value: 28 days); type: functional; conditions: time 64 day
[5] = target: Calcium/calmodulin-dependent protein kinase kinase 1 (Homo sapiens) (UniProt Q8N5S9); assay: Inhibition of human CAMKK1 at 1 uM using MBP as substrate in presence of [gamma33P]-ATP by HotSpot assay relative to control
[6] = target: Protein kinase C alpha type (Homo sapiens) (UniProt P17252); assay: Inhibition of human PRKCA at 1 uM using ERMRPRKRQGSVRRRV as substrate in presence of [gamma33P]-ATP by HotSpot assay relative to control
[7] = target: CDK9/cyclin T1 (Homo sapiens) (UniProt O60563+P50750); assay: Inhibition of human CDK9/CyclinT1 at 1 uM using KTFCGTPEYLAPEVRREPRILSEEEQEMFRDFDYIADWC as substrate in presence of [gamma33P]-ATP by HotSpot assay relative to control; type: protein-complex assay
[8] = target: Casein kinase I isoform epsilon (Homo sapiens) (UniProt P49674); assay: Inhibition of human CK1epsilon at 1 uM using KRRRAL[pS]VASLPGL as substrate in presence of [gamma33P]-ATP by HotSpot assay relative to control
[9] = target: Calcium/calmodulin-dependent protein kinase type 1D (Homo sapiens) (UniProt Q8IU85); assay: Inhibition of human CAMK1D at 1 uM using KKALRRQETVDAL as substrate in presence of [gamma33P]-ATP by HotSpot assay relative to control
[10] = target: Serine/threonine-protein kinase Nek9 (Homo sapiens, UniProt Q8TD19); assay: Inhibition of human NEK9 using MBP as substrate in presence of [gamma33P]-ATP by HotSpot assay
[11] = target: Proto-oncogene tyrosine-protein kinase receptor Ret (Homo sapiens, UniProt P07949, V804M); assay: Inhibition of human RET V804M mutant using RRRRRRRRRRRVYSTDYYRLFNPS as substrate in presence of [gamma33P]-ATP by HotSpot assay
[12] = target: Tyrosine-protein kinase HCK (Homo sapiens, UniProt P08631); assay: Inhibition of human HCK using KVEKIGEGTYGVVYK as substrate in presence of [gamma33P]-ATP by HotSpot assay
[13] = target: Serine/threonine-protein kinase PLK3 (Homo sapiens) (UniProt Q9H4B4); assay: Inhibition of human PLK3 at 1 uM using casein as substrate in presence of [gamma33P]-ATP by HotSpot assay relative to control
[14] = target: Fibroblast growth factor receptor 2 (Homo sapiens, UniProt P21802); assay: Inhibition of human FGFR2 using poly (Glu, Tyr)4:1 as substrate in presence of [gamma33P]-ATP by HotSpot assay
[15] = target: Aurora kinase C (Homo sapiens, UniProt Q9UQB9); assay: Inhibition of human AURKC using H-LRRASLG as substrate in presence of [gamma33P]-ATP by HotSpot assay
[16] = target: Testis-specific serine/threonine-protein kinase 2 (Homo sapiens, UniProt Q96PF2); assay: Inhibition of human TSSK2 using KKKVSRSGLYRSPSMPENLNRPR as substrate in presence of [gamma33P]-ATP by HotSpot assay
[17] = target: Tyrosine-protein kinase Yes (Homo sapiens, UniProt P07947); assay: Inhibition of human YES1 using poly (Glu, Tyr)4:1 as substrate in presence of [gamma33P]-ATP by HotSpot assay
[18] = target: Leucine-rich repeat serine/threonine-protein kinase 2 (Homo sapiens, UniProt Q5S007); assay: Inhibition of human LRRK2 using RLGRDKYKTLRQIRQ as substrate in presence of [gamma33P]-ATP by HotSpot assay
[19] = target: Testis-specific serine/threonine-protein kinase 1 (Homo sapiens, UniProt Q9BXA7); assay: Inhibition of human TSSK1 using KKKVSRSGLYRSPSMPENLNRPR as substrate in presence of [gamma33P]-ATP by HotSpot assay
[20] = target: RAC-gamma serine/threonine-protein kinase (Homo sapiens) (UniProt Q9Y243); assay: Inhibition of human AKT3 at 1 uM using KGSGSGRPRTSSFAEG as substrate in presence of [gamma33P]-ATP by HotSpot assay relative to control
[21] = target: Inhibitor of nuclear factor kappa-B kinase subunit alpha (Homo sapiens) (UniProt O15111); assay: Inhibition of human CHUK at 1 uM using KKKKERLLDDRHDSGLDSMKDEE as substrate in presence of [gamma33P]-ATP by HotSpot assay relative to control
[22] = target: Insulin-like growth factor 1 receptor (Homo sapiens, UniProt P08069)
Description: Inhibition of IGF-1R phosphorylation in IGF-1 stimulated human HepG2 cells preincubated with compound for 30 mins followed by IGF-1 stimulation for 10 mins by Immunoblot analysis

[23] = target: Serine/threonine-protein kinase PLK1 (Homo sapiens, UniProt P53350); assay: Inhibition of human PLK1 using casein as substrate in presence of [gamma33P]-ATP by HotSpot assay
[24] = tested on: NCI-H2228; assay: Antitumor activity against ALK positive human NCI-H2228 cells xenografted in CB-17/SCID orthotopic brain tumor mouse model assessed as median survival time at 25 mg/kg po administered daily and measured after 64 days (reference value: 28 days); type: functional; conditions: time 64 day
[25] = target: G protein-coupled receptor kinase 3 (Homo sapiens) (UniProt P35626); assay: Inhibition of human ADRBK2 at 1 uM using casein as substrate in presence of [gamma33P]-ATP by HotSpot assay relative to control
[26] = target: Dual specificity tyrosine-phosphorylation-regulated kinase 4 (Homo sapiens) (UniProt Q9NR20); assay: Inhibition of human DYRK4 at 1 uM using RRRFRPASPLRGPPK as substrate in presence of [gamma33P]-ATP by HotSpot assay relative to control
[27] = tested on: EML4-ALK (Homo sapiens), Q9UM73+Q9HC35 [V1180L]; conditions: BaF3, dose 500.0 nmol/L, time 3-5 weeks

Casein kinase I isoform epsilon (Homo sapiens), sequence (P49674 whole entry, looked up, canonical isoform): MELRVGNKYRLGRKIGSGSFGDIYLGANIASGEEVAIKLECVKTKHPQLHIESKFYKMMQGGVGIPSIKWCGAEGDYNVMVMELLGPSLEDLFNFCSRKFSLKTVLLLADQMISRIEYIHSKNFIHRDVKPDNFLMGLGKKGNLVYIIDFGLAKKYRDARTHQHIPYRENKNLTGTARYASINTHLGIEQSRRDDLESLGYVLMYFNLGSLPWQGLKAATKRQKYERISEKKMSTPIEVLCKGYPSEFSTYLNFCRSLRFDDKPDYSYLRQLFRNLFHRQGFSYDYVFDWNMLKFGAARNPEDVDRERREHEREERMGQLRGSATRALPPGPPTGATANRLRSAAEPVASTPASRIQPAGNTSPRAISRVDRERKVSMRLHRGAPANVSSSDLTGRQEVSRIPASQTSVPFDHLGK
RAC-gamma serine/threonine-protein kinase (Homo sapiens), sequence (Q9Y243 whole entry): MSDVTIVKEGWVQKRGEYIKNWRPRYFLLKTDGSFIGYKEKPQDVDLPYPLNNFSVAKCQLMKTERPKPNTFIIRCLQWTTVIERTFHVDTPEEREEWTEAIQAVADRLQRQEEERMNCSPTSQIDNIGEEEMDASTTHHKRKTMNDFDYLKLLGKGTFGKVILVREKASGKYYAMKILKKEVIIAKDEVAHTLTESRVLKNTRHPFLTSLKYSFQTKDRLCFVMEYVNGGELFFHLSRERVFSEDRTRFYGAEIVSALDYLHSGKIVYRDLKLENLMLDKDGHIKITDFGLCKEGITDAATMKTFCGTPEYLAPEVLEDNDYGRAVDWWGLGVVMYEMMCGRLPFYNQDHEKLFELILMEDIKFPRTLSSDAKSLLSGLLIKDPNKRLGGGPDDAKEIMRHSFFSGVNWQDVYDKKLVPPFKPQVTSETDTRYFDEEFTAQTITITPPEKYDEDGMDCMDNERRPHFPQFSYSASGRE
Proto-oncogene tyrosine-protein kinase receptor Ret, sequence (P07949 29-1114 V804M limits assumed): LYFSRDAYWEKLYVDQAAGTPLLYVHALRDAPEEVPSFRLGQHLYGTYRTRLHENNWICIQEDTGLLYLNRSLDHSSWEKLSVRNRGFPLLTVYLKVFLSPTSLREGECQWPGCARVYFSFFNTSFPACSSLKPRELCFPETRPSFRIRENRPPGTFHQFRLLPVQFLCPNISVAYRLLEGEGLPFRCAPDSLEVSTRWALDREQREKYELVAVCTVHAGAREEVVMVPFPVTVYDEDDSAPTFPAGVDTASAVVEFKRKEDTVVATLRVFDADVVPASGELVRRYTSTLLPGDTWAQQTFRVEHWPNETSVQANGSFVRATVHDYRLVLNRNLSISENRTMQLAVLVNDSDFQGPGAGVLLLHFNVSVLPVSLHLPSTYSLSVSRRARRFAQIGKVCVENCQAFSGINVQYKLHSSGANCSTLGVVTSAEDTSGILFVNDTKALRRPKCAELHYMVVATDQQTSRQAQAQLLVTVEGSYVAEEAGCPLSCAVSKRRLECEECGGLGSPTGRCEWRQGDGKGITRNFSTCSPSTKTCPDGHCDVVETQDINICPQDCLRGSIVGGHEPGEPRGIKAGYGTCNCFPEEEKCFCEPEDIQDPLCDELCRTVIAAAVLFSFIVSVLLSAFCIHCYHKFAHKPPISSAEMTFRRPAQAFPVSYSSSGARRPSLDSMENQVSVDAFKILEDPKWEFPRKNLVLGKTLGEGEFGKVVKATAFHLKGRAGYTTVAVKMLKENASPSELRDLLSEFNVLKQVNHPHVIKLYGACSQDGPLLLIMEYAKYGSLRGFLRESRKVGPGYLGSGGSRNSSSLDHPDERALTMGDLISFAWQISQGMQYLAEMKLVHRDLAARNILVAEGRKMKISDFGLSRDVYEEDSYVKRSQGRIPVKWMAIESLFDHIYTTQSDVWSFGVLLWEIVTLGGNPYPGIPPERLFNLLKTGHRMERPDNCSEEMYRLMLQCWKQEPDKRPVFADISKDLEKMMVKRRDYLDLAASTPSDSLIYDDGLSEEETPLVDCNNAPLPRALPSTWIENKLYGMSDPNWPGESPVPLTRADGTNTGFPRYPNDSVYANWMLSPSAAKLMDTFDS
Insulin-like growth factor 1 receptor, sequence (P08069 31-736 limits assumed): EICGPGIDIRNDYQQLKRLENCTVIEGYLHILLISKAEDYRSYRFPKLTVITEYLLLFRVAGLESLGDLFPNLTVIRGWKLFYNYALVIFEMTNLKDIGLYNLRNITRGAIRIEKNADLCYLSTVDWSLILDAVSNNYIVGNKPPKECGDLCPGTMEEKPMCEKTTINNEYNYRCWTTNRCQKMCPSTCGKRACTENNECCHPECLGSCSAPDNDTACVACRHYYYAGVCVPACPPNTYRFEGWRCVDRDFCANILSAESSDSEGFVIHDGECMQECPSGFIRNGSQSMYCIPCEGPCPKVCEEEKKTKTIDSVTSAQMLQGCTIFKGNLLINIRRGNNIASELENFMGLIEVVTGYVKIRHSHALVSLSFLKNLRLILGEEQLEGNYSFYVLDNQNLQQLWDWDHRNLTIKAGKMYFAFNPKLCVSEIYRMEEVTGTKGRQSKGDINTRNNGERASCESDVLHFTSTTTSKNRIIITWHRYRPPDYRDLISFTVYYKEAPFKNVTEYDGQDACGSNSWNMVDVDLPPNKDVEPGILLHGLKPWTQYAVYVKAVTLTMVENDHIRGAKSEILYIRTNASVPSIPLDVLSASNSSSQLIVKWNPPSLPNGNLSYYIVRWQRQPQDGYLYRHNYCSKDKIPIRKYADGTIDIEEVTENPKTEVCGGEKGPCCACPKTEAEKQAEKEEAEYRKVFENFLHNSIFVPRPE
Insulin-like growth factor 1 receptor, sequence (P08069 741-1367 limits assumed): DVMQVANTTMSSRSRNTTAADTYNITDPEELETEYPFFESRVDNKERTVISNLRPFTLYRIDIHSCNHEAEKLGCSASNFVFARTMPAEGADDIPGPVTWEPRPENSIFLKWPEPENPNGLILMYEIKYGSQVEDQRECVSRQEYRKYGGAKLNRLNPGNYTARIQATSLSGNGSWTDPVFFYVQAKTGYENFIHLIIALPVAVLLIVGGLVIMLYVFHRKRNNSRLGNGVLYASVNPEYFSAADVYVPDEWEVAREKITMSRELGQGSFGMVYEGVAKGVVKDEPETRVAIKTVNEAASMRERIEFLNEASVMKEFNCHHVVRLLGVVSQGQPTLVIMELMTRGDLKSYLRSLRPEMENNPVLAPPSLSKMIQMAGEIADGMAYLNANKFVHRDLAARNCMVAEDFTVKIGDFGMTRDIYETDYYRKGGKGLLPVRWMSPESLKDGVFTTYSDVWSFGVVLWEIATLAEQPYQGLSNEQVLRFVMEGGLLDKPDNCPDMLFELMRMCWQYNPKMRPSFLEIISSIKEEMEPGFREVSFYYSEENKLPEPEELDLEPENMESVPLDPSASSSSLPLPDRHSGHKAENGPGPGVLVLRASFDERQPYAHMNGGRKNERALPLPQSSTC
Fibroblast growth factor receptor 2, sequence (P21802 whole entry): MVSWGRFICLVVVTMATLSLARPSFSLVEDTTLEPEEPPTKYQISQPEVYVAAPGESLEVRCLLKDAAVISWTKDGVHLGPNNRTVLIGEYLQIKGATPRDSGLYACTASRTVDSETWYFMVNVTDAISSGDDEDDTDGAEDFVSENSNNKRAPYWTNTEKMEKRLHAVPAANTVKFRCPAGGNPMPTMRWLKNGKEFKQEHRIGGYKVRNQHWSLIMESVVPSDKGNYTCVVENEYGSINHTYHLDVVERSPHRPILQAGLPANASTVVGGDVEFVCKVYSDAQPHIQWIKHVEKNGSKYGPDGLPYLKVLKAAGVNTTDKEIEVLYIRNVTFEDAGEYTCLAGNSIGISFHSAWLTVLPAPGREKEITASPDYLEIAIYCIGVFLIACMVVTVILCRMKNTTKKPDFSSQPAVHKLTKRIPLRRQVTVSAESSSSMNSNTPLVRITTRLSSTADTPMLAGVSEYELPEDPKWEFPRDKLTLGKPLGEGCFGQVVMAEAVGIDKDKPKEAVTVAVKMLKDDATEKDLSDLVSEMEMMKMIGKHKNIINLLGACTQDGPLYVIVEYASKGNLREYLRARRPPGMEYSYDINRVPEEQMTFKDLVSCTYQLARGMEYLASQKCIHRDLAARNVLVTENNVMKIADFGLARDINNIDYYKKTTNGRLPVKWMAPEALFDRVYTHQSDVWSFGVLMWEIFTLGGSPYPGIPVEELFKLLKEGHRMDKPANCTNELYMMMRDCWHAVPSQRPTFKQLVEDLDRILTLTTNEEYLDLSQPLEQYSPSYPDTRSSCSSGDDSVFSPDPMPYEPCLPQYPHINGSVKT
Testis-specific serine/threonine-protein kinase 2, sequence (Q96PF2 whole entry): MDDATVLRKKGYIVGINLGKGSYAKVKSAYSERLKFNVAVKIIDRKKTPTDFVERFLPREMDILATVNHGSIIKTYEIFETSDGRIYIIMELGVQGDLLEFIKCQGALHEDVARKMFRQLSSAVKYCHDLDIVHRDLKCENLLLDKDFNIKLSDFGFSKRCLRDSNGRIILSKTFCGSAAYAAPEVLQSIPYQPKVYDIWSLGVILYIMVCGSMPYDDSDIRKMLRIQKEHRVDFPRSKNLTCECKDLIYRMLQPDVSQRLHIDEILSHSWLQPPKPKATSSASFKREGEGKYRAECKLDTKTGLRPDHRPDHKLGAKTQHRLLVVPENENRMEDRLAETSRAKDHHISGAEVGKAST
Tyrosine-protein kinase HCK, sequence (P08631 whole entry): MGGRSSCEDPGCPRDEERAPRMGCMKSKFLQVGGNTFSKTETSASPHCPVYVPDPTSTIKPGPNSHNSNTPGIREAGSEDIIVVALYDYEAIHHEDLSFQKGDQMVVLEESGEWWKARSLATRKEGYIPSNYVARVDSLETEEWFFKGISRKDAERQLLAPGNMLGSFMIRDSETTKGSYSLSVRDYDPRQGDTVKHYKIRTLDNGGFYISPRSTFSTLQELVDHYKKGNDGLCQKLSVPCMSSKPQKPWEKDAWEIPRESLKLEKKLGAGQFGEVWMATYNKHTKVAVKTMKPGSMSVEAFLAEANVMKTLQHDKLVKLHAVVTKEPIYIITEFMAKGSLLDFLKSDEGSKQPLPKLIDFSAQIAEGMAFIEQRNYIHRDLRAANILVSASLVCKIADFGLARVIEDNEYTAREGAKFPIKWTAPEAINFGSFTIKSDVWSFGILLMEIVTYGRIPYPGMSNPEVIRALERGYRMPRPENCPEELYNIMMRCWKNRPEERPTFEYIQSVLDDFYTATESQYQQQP

Work on `COc1cc(N2CCC(N3CCN(C)CC3)CC2)ccc1Nc1ncc(Cl)c(Nc2ccccc2P(C)(C)=O)n1` [BRIGATINIB] yielded an inhibition [1] of under 90%, an inhibition [2] of under 90% and an inhibition [3] of under 90%. The MSD [4] was over 64 days, the inhibition [5] was under 90% and the inhibition [6] was under 90%. For the same compound, the inhibition [7] was under 90%, the inhibition [8] was under 90% and the inhibition [9] was under 90%. For the same compound, the IC50 [10] was over 1000 nM, the IC50 [11] was 22 nM and the IC50 [12] was 198 nM. For the same compound, the inhibition [13] was under 90%, the IC50 [14] was 228 nM and the IC50 [15] was over 1000 nM. The IC50 [16] was 138 nM, the IC50 [17] was 19 nM and the IC50 [18] was 51 nM. It also gave an IC50 [19] of 4.4 nM, an inhibition [20] of under 90% and an inhibition [21] of under 90%. The IC50 [22] was 148 nM, the IC50 [23] was 611 nM and the MSD [24] was 62 days. For the same compound, the inhibition [25] was under 90%, the inhibition [26] was under 90% and the inhibition [27] was “Active”.
